Data set [1] has as its system Escherichia coli (E. Coli, ATCC 25922). As to conditions: ATCC 25922.
The test system of data set [2] is Methicillin-resistant Staphylococcus aureus MRSA (ATCC BAA-1556). The following applies: ATCC BAA-1556.
Data set [3] deals with Klebsiella pneumoniae (KPC, ATCC BAA-1705). As to conditions: ATCC BAA-1705.
In a further data set the test system is human red blood cells. The arrangement: unit not given beside the values.
For data set [4], the system named is Pseudomonas aeruginosa (PSA, ATCC 27883). The following applies: ATCC 27883.
Data set [5] relates to Methicillin-resistant Staphylococcus aureus MRSA (ATCC BAA-1556). The following applies: ATCC BAA-1556. The source holds these as a separate data set.
Data set [6] has as its system Pseudomonas aeruginosa (PSA, ATCC 27883). Kind of data set: Synergy checkerboard assay (FIC index). The class given is cell-based. As to conditions: Pseudomonas aeruginosa (ATCC 27883).
In data set [7] the test system is Klebsiella pneumoniae (KPC, ATCC BAA-1705). The following applies: Klebsiella pneumoniae (ATCC BAA-1705).
The format of data set [8] is in vivo. As to conditions: for Average Body Weight / Average Body Weight Growth Rate: Female (M40~M42). The method, then: In-vivo toxicity study of IFX301. 1. Dose formulations were prepared freshly on dosing day. Doses started from the low to high levels and staggered with 4 h up to 24 h between doses with animals. A dose was escalated or decreased if the test compound appears to be generally tolerated well or not. The cage side observation was done twice daily. The clinical observation was conducted prior to randomization and dosing daily thereafter (at least hourly for the first 4 hours after dosing) and prior to termination for mortality, morbidity check, and clinical signs. Bodyweight was monitored prior to randomization and dosing, daily thereafter, and prior to termination. Gross necropsy was done for all scheduled animals on day 8. Full gross necropsy was conducted, this includes a macroscopic examination of the external surface of the body, all orifices, cranial cavity, the external surface of the brain and cut surfaces of the spinal cord, and the cranial, thoracic, abdominal and pelvic cavities and their viscera, cervical areas, carcass, and genitalia; The animal identification and selected tissues (sex appropriate) identified in Table 38 were sampled and preserved in 10% neutral buffered formalin (NBF). For unscheduled animals (found dead and moribund sacrificed animals): gross necropsy was conducted, and tissues were preserved for possible histology to determine the cause of death. Histopathology was done for adrenal glands, brain, cecum, colon, duodenum, heart, ileum, jejunum, kidneys, liver, rectum, spleen, stomach, thymus lung, pancreas and the testis (ovaries); total 16 tissues/mouse.

Data set [9] has as its system Escherichia coli (E. Coli, ATCC 25922). As to conditions: Escherichia coli (ATCC 25922).
The test system of another data set is MRSA (ATCC BAA-1556). As to conditions: MRSA (ATCC BAA-1556).
Where [10] appears, read: Table 25, peptide in combination with antibiotics.
The mark [11] stands for this setting: Average, ICR mice, IP, 25 mg/kg, Male (M49~M51).
The mark [12] stands for this setting: Average, ICR mice, IP, 50 mg/kg, Male (M43~M45).
[13] abbreviates: Female ICR mice, MTD study, IP route, 10 mg/kg & 5 mL/kg, M40~M42.
Setting [14] is: Female ICR mice, MTD study, IP route, 25 mg/kg & 5 mL/kg, M52~M54.
[15] abbreviates: Female ICR mice, MTD study, IP route, 50 mg/kg & 5 mL/kg, M46~M48.
Where [16] appears, read: peptide part of FIC antibiotic/peptides, in combination with antibiotic.

Converted amounts (≈) assume the structure as drawn. Where two headings read alike, the source gives them in different places. Non-standard residues stand in square brackets, D forms with d. Residues, ends and D or L forms follow the SMILES beside them. 2Nal = N[C@@H](Cc1ccc2ccccc2c1)C(=O)O

The source of these data is patent US20220289794A1, “SYNTHETIC ANTIMICROBIAL PEPTIDES” (priority 2019, published 2022).

Protocol for human red blood cells: Hemolytic Assay. We investigated the hemolytic effect (hemolytic assay) of the compounds on fresh human red blood cells to determine the cytotoxicity of the compounds. The hemolytic assay was conducted by serial dilution using 1% Triton X, 0.2% Triton X and PBS buffer pH 7.4 as controls. […] 3 mL of the fresh blood sample was washed severally by adding about 10 mL PBS buffer pH 7.4 and centrifuge at 4000 G until the supernatant was cleared. The washed blood sample was diluted to 20 mL volume to be used in the study. An aliquot of 190 μL blood sample was added to 10 μL compound sample in an Eppendorf tube and incubated for 30 min. After incubation, it was centrifuged at 4000 G for 5 min. 100 μL supernatant aliquot was diluted with 1 mL PBS buffer, and the absorbance was measured at 567 nm for the sample. % hemolysis is calculated as follows:
Where AX is the absorbance at various serial concentrations A0 absorbance of PBS buffer pH 7.4 AX absorbance of 0.2% Triton X control equivalent to 100%

On to `N=C(N)NCCC[C@@H]1NC(=O)[C@H](CCCNC(=N)N)NC(=O)[C@H](CCCNC(=N)N)NC(=O)[C@H](Cc2c[nH]c3ccccc23)NC(=O)[C@H](Cc2ccc3ccccc3c2)NC(=O)[C@H](Cc2ccc3ccccc3c2)NC(=O)[C@H](CCCNC(=N)N)NC1=O` [IFX-031, c[Arg-Arg-Arg-Arg-NaI-NaI-Trp]] (cyclo(RRRR[2Nal][2Nal]W)), for which, in [1], the “Escherichia coli (ATCC 25922) MIC” value is 16 mg/L. The “MRSA (ATCC BAA-1556) MIC” value in [2] turned out to be 2 mg/L. For the same compound, the “Klebsiella pneumoniae (ATCC BAA-1705) MIC” value (from here on “Klebsiella pneumoniae”) in [3] was found to be 32 mg/L. The HC50 in the data set with human red blood cells was 350. Moreover, the “Pseudomonas aeruginosa (ATCC 27883) MIC” value in [4] is 16 mg/L. The “MIC MRSA ATCC BAA-1556” value in data set [5] amounted to 1.5 mg/L (≈ 1.24 µM).

With `N=C(N)NCCC[C@@H]1NC(=O)[C@H](CCCNC(=N)N)NC(=O)[C@H](CCCNC(=N)N)NC(=O)[C@H](Cc2c[nH]c3ccccc23)NC(=O)[C@H](Cc2c[nH]c3ccccc23)NC(=O)[C@H](Cc2c[nH]c3ccccc23)NC(=O)[C@H](Cc2c[nH]c3ccccc23)NC(=O)[C@H](CCCNC(=N)N)NC(=O)[C@H](CCCNC(=N)N)NC1=O` [IFX-301, [R5W4]], the “MIC (peptide)” value in data set [6] (Table 25, peptide alone) is recorded as “MIC = 32 ug/ml”; in [7] (Table 25, peptide alone), “MIC = 32 ug/ml”; in data set [9] (Table 25, peptide alone), “MIC = 16 ug/ml”; against MRSA (ATCC BAA-1556) (Table 25, peptide alone), “MIC = 4 ug/ml”. In addition, the “FIC (peptide)” value was “FIC = 8 ug/ml” in data set [6] (setting [10]), “FIC = 8 ug/ml” in data set [7] (setting [10]), “FIC = 4 ug/ml” in data set [9] (setting [10]) and “FIC = 1 ug/ml” in the data set with MRSA (ATCC BAA-1556) (setting [10]). Further, in data set [2], the “MRSA (ATCC BAA-1556) MIC” value was determined as 4 mg/L. Further, the “Adrenal glands/Body Coefficient” value came to 0.03% in data set [8] (setting [11]), 0.04% in data set [8] (setting [13]), 0.05% in data set [8] (setting [14]) and 0.03% in data set [8] (setting [15]). Also, the “Heart/Body Coefficient” value in data set [8] (setting [11]) amounted to 0.57%; in [8] (setting [12]), 0.49%; in data set [8] (setting [13]) it was 0.51%; in data set [8] (setting [14]), 0.53%; in data set [8] (setting [15]), 0.49%. Also, the “Kidneys/Body Coefficient” value in data set [8] (setting [11]) amounted to 2.15%; in data set [8] (setting [12]), 2.06%; in [8] (setting [13]), 1.46%; in [8] (setting [14]), 1.73%; in data set [8] (setting [15]), 1.84%. Besides, the “Liver/Body Coefficient” value in [8] (setting [11]) is recorded as 8.64%; in data set [8] (setting [12]), 8.27%; in data set [8] (setting [13]), 6.51%; in data set [8] (setting [14]) it was 7.85%; in data set [8] (setting [15]), 7.82%. The “Lung/Body Coefficient” value in [8] (setting [11]) was 1.00%; in data set [8] (setting [12]), 0.72%; in [8] (setting [13]), 0.89%; in data set [8] (setting [14]), 1.13%; in data set [8] (setting [15]) it was 0.75%. The “Spleen/Body Coefficient” value in [8] (setting [11]) was determined as 0.46%; in [8] (setting [12]), 0.68%; in data set [8] (setting [13]), 0.60%; in data set [8] (setting [14]), 0.64%; in [8] (setting [15]), 0.81%. Besides, the figures for the “Testes/Body Coefficient” value in [8] (setting [11]) and in data set [8] (setting [12]) were 0.62% and 0.69%, respectively. The “Thymus/Body Coefficient” value was found to be 0.31% in [8] (setting [11]); 0.25% in data set [8] (setting [12]); 0.48% in data set [8] (setting [13]); 0.49% in [8] (setting [14]); 0.35% in [8] (setting [15]). The “Average Body Weight before Necropsy” value in [8] (setting [13]) worked out at 25 g; in data set [8] (setting [14]), 23 g; in data set [8] (setting [15]), 21 g; in data set [8] (mouse, in vivo, ip, 10 mg/kg), 27 g; in [8] (mouse, in vivo, ip, 25 mg/kg), 26 g; in [8] (mouse, in vivo, ip, 50 mg/kg) it was 26 g. Besides, the “Brain/Body Coefficient” value in [8] (setting [13]) came to 1.77%. Further, the “Ovaries/Body Coefficient” value in [8] (setting [13]) came out at 0.08%; in data set [8] (setting [14]) it was 0.09%; in data set [8] (setting [15]), 0.08%. The “Average Body Weight” value is listed as 21 g in data set [8] (ICR mice, IP, 10 mg/kg, Day 1); 21 g in data set [8] (ICR mice, IP, 10 mg/kg, Day 2); 22 g in data set [8] (ICR mice, IP, 10 mg/kg, Day 3); 23 g in data set [8] (ICR mice, IP, 10 mg/kg, Day 4); 24 g in data set [8] (ICR mice, IP, 10 mg/kg, Day 5); 24 g in data set [8] (ICR mice, IP, 10 mg/kg, Day 6). In addition, the “Average Body Weight” value in [8] (ICR mice, IP, 10 mg/kg, Day 7) turned out to be 24 g; in [8] (ICR mice, IP, 10 mg/kg, Day 8), 25 g. Also, the “Average Body Weight Growth Rate” value in data set [8] (ICR mice, IP, 10 mg/kg, Day 2) was 3.23%; in [8] (ICR mice, IP, 10 mg/kg, Day 3) it was 4.84%; in data set [8] (ICR mice, IP, 10 mg/kg, Day 4), 11.29%; in data set [8] (ICR mice, IP, 10 mg/kg, Day 5), 16.13%; in data set [8] (ICR mice, IP, 10 mg/kg, Day 6) it was 16.13%; in data set [8] (ICR mice, IP, 10 mg/kg, Day 7), 17.74%. For the same compound, in [8] (ICR mice, IP, 10 mg/kg, Day 8), the “Average Body Weight Growth Rate” value was determined as 20.97%. In addition, the clinical observation result in data set [8] (mouse, in vivo) is reported as “did not show any abnormalities”. Also, the “Pseudomonas aeruginosa (ATCC 27883) MIC” value in data set [4] was found to be 32 mg/L.

For the compound `N=C(N)NCCC[C@@H]1NC(=O)[C@H](CCCNC(=N)N)NC(=O)[C@H](CCCNC(=N)N)NC(=O)[C@H](CCCNC(=N)N)NC(=O)[C@H](Cc2c[nH]c3ccccc23)NC(=O)[C@H](Cc2c[nH]c3ccccc23)NC(=O)[C@H](Cc2c[nH]c3ccccc23)NC(=O)[C@H](Cc2c[nH]c3ccccc23)NC(=O)[C@H](CCCNC(=N)N)NC(=O)[C@H](CCCNC(=N)N)NC1=O` [IFX-318, [R6W4]] (cyclo(RRRRRRWWWW)), the FIC peptides entry in data set [6] (setting [16]) was “FIC = 4 ug/ml”; in data set [7] (setting [16]) it was “FIC = 16 μg/ml”; in [9] (setting [16]) it was “FIC = 8 μg/ml”; in the data set on MRSA (ATCC BAA-1556) (setting [16]) it was “FIC = 2 μg/ml”. Moreover, the “Escherichia coli (ATCC 25922) MIC” value in data set [1] is 32 mg/L. The “Klebsiella pneumoniae” value in data set [3] is 64 mg/L.

As for `N=C(N)NCCC[C@@H]1NC(=O)[C@H](CCCNC(=N)N)NC(=O)[C@H](CCCNC(=N)N)NC(=O)[C@H](CCCCN)NC(=O)[C@H](Cc2c[nH]c3ccccc23)NC(=O)[C@H](Cc2c[nH]c3ccccc23)NC(=O)[C@H](Cc2c[nH]c3ccccc23)NC(=O)[C@H](Cc2c[nH]c3ccccc23)NC(=O)[C@H](CCCNC(=N)N)NC(=O)[C@H](CCCNC(=N)N)NC1=O` [[R4W5K] (IFX-315)] (cyclo(RRRRRWWWWK)), the “Escherichia coli (ATCC 25922) MIC” value in data set [1] was 16 mg/L. The “MRSA (ATCC BAA-1556) MIC” value in [2] was determined as 4 mg/L. For the same compound, the “Klebsiella pneumoniae” value in data set [3] was found to be 32 mg/L. The “Pseudomonas aeruginosa (ATCC 27883) MIC” value in data set [4] was found to be 16 mg/L.
